According to PubChem BioAssay (NCI):
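Test compounds were applied to cells in 96-well plates for 48 hours at 5 doses. The concentration for 50% growth inhibition is given as GI50. The concentration for full growth arrest is given as TGI.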

What was measured:
Assay in all cases: growth of human tumour cells (NCI), 48 h
786-0 renal = test system: 786-0 renal
A498 renal = test system: A498 renal
A549 NSCLC = test system: A549 NSCLC
ACHN renal = test system: ACHN renal
BT-549 breast = test system: BT-549 breast
CAKI-1 renal = test system: CAKI-1 renal
CCRF-CEM leukemia = test system: CCRF-CEM leukemia
COLO 205 colon = test system: COLO 205 colon
DU-145 prostate = test system: DU-145 prostate
EKVX NSCLC = test system: EKVX NSCLC
HCC-2998 colon = test system: HCC-2998 colon
HCT-116 colon = test system: HCT-116 colon
HCT-15 colon = test system: HCT-15 colon
HL-60(TB) leukemia = test system: HL-60(TB) leukemia
HOP-62 NSCLC = test system: HOP-62 NSCLC
HOP-92 NSCLC = test system: HOP-92 NSCLC
HS 578T breast = test system: HS 578T breast
HT29 colon = test system: HT29 colon
IGROV1 ovarian = test system: IGROV1 ovarian
K-562 leukemia = test system: K-562 leukemia
KM12 colon = test system: KM12 colon
LOX IMVI melanoma = test system: LOX IMVI melanoma
M14 melanoma = test system: M14 melanoma
MALME-3M melanoma = test system: MALME-3M melanoma
MCF7 breast = test system: MCF7 breast
MDA-MB-231 breast = test system: MDA-MB-231 breast
MDA-MB-435 = test system: MDA-MB-435
MOLT-4 leukemia = test system: MOLT-4 leukemia
NCI-H226 lung = test system: NCI-H226 lung
NCI-H23 lung = test system: NCI-H23 lung
NCI-H460 lung = test system: NCI-H460 lung
NCI-H522 lung = test system: NCI-H522 lung
NCI/ADR-RES ovarian = test system: NCI/ADR-RES ovarian
OVCAR-4 ovarian = test system: OVCAR-4 ovarian
OVCAR-5 ovarian = test system: OVCAR-5 ovarian
OVCAR-8 ovarian = test system: OVCAR-8 ovarian
PC-3 prostate = test system: PC-3 prostate
RPMI-8226 leukemia = test system: RPMI-8226 leukemia
RXF 393 renal = test system: RXF 393 renal
SF-268 CNS = test system: SF-268 CNS
SF-295 CNS = test system: SF-295 CNS
SF-539 CNS = test system: SF-539 CNS
SK-MEL-2 melanoma = test system: SK-MEL-2 melanoma
SK-MEL-28 melanoma = test system: SK-MEL-28 melanoma
SK-MEL-5 melanoma = test system: SK-MEL-5 melanoma
SK-OV-3 ovarian = test system: SK-OV-3 ovarian
SN12C renal = test system: SN12C renal
SNB-19 CNS = test system: SNB-19 CNS
SNB-75 CNS = test system: SNB-75 CNS
SR leukemia = test system: SR leukemia
SW-620 colon = test system: SW-620 colon
T-47D breast = test system: T-47D breast
TK-10 renal = test system: TK-10 renal
U251 CNS = test system: U251 CNS
UACC-257 melanoma = test system: UACC-257 melanoma
UACC-62 melanoma = test system: UACC-62 melanoma
UO-31 renal = test system: UO-31 renal

CS(=O)(=O)Nc1cc(-c2ccc3ncc(C#N)c(NCc4ccccc4F)c3c2)cnc1Cl
GI50 (786-0 renal): 308 nM
TGI (786-0 renal): 9.52 µM
GI50 (A498 renal): 89.6 nM
TGI (A498 renal): 461 nM
GI50 (A549 NSCLC): 442 nM
TGI (A549 NSCLC): 4 µM
GI50 (ACHN renal): 436 nM
TGI (ACHN renal): > 52.5 µM
GI50 (BT-549 breast): 60.9 nM
TGI (BT-549 breast): 623 nM
GI50 (CAKI-1 renal): 131 nM
TGI (CAKI-1 renal): 1420 nM
GI50 (CCRF-CEM leukemia): 153 nM
TGI (CCRF-CEM leukemia): 45.8 µM
GI50 (COLO 205 colon): 271 nM
TGI (COLO 205 colon): 1200 nM
GI50 (DU-145 prostate): 302 nM
TGI (DU-145 prostate): 12.1 µM
GI50 (EKVX NSCLC): 319 nM
TGI (EKVX NSCLC): 5.48 µM
GI50 (HCC-2998 colon): 339 nM
TGI (HCC-2998 colon): 8.32 µM
GI50 (HCT-116 colon): 248 nM
TGI (HCT-116 colon): 1500 nM
GI50 (HCT-15 colon): 264 nM
TGI (HCT-15 colon): 11.7 µM
GI50 (HL-60(TB) leukemia): 253 nM
TGI (HL-60(TB) leukemia): 6.39 µM
GI50 (HOP-62 NSCLC): 220 nM
TGI (HOP-62 NSCLC): 4.71 µM
GI50 (HOP-92 NSCLC): 23.8 nM
TGI (HOP-92 NSCLC): 286 nM
GI50 (HS 578T breast): 49.8 nM
TGI (HS 578T breast): 445 nM
GI50 (HT29 colon): 324 nM
TGI (HT29 colon): 5.49 µM
GI50 (IGROV1 ovarian): 108 nM
TGI (IGROV1 ovarian): 876 nM
GI50 (K-562 leukemia): 260 nM
TGI (K-562 leukemia): > 100 µM
GI50 (KM12 colon): 280 nM
TGI (KM12 colon): 3.86 µM
GI50 (LOX IMVI melanoma): 191 nM
TGI (LOX IMVI melanoma): 1010 nM
GI50 (M14 melanoma): 243 nM
TGI (M14 melanoma): 7.01 µM
GI50 (MALME-3M melanoma): 71.7 nM
TGI (MALME-3M melanoma): 475 nM
GI50 (MCF7 breast): 106 nM
TGI (MCF7 breast): 11.5 µM
GI50 (MDA-MB-231 breast): 343 nM
TGI (MDA-MB-231 breast): 3.8 µM
GI50 (MDA-MB-435): 251 nM
TGI (MDA-MB-435): 10.6 µM
GI50 (MOLT-4 leukemia): 190 nM
TGI (MOLT-4 leukemia): 2540 nM
GI50 (NCI-H226 lung): 358 nM
TGI (NCI-H226 lung): 18.2 µM
GI50 (NCI-H23 lung): 271 nM
TGI (NCI-H23 lung): 12.3 µM
GI50 (NCI-H460 lung): 374 nM
TGI (NCI-H460 lung): 11.5 µM
GI50 (NCI-H522 lung): 335 nM
TGI (NCI-H522 lung): 8.14 µM
GI50 (NCI/ADR-RES ovarian): 1450 nM
TGI (NCI/ADR-RES ovarian): 29.5 µM
GI50 (OVCAR-4 ovarian): 262 nM
TGI (OVCAR-4 ovarian): 6.05 µM
GI50 (OVCAR-5 ovarian): 386 nM
TGI (OVCAR-5 ovarian): 9.74 µM
GI50 (OVCAR-8 ovarian): 328 nM
TGI (OVCAR-8 ovarian): 12.2 µM
GI50 (PC-3 prostate): 231 nM
TGI (PC-3 prostate): 10 µM
GI50 (RPMI-8226 leukemia): 189 nM
TGI (RPMI-8226 leukemia): 1290 nM
GI50 (RXF 393 renal): 93.4 nM
TGI (RXF 393 renal): 925 nM
GI50 (SF-268 CNS): 163 nM
TGI (SF-268 CNS): 3.67 µM
GI50 (SF-295 CNS): 197 nM
TGI (SF-295 CNS): 1920 nM
GI50 (SF-539 CNS): 190 nM
TGI (SF-539 CNS): 1840 nM
GI50 (SK-MEL-2 melanoma): 91.9 nM
TGI (SK-MEL-2 melanoma): 320 nM
GI50 (SK-MEL-28 melanoma): 176 nM
TGI (SK-MEL-28 melanoma): 4.77 µM
GI50 (SK-MEL-5 melanoma): 163 nM
TGI (SK-MEL-5 melanoma): 336 nM
GI50 (SK-OV-3 ovarian): 232 nM
TGI (SK-OV-3 ovarian): 1400 nM
GI50 (SN12C renal): 235 nM
TGI (SN12C renal): > 64 µM
GI50 (SNB-19 CNS): 293 nM
TGI (SNB-19 CNS): 11.5 µM
GI50 (SNB-75 CNS): 26.7 nM
TGI (SNB-75 CNS): 370 nM
GI50 (SR leukemia): 123 nM
TGI (SR leukemia): 3.2 µM
GI50 (SW-620 colon): 317 nM
TGI (SW-620 colon): 10.8 µM
GI50 (T-47D breast): 108 nM
TGI (T-47D breast): 5.84 µM
GI50 (TK-10 renal): 100 nM
TGI (TK-10 renal): 976 nM
GI50 (U251 CNS): 155 nM
TGI (U251 CNS): 4.27 µM
GI50 (UACC-257 melanoma): 244 nM
TGI (UACC-257 melanoma): 4.94 µM
GI50 (UACC-62 melanoma): 118 nM
TGI (UACC-62 melanoma): 1270 nM
GI50 (UO-31 renal): 154 nM
